Data reported in ChEMBL document CHEMBL6074623, “Carbamoylation at C-8 position of natural 3-arylcoumarin scaffold for the discovery of novel PARP-1 inhibitors with potent anticancer activity” (Eur J Med Chem, 2024).

What was measured:
SUM149PT [1] = test: Antiproliferative activity against human SUM149PT cells assessed as inhibition of cell growth incubated for 48 hrs by MTT assay; type: functional, cell-based
SUM149PT [2] = test: Induction of cell cycle arrest in human SUM149PT cells assessed as accumulation of cells at S phase at 2 uM incubated for 48 hrs by propidium iodide/RNase A staining based flow cytometry (reference value: 18.7 %); type: functional
SUM149PT [3] = test: Induction of DNA double strand breaks in human SUM149PT cells assessed as increase in gamma-H2AX level in nucleus incubated for 48 hrs by immunofluorescence analysis; type: functional, cell-based
SUM149PT [4] = test: Induction of apoptosis in human SUM149PT cells assessed as late apoptotic cells at 0.5 uM incubated for 48 hrs by Annexin V-FITC/PI staining based flow cytometry (reference value: 1.13 %); type: functional
MDA-MB-436 = test: Antiproliferative activity against human MDA-MB-436 cells assessed as inhibition of cell growth at 20 uM incubated for 48 hrs by MTT assay relative to control; type: functional
SUM149PT [5] = test: Induction of apoptosis in human SUM149PT cells assessed as viable cells at 0.5 uM incubated for 24 hrs by Annexin V-FITC/PI staining based flow cytometry (reference value: 93.7 %); type: functional; settings: read-out: Activity
SUM149PT [6] = test: Induction of apoptosis in human SUM149PT cells assessed as early apoptotic cells at 0.5 uM incubated for 48 hrs by Annexin V-FITC/PI staining based flow cytometry (reference value: 2.28 %); type: functional
SUM149PT [7] = test: Induction of cell cycle arrest in human SUM149PT cells assessed as accumulation of cells at S phase at 0.1 uM incubated for 48 hrs by propidium iodide/RNase A staining based flow cytometry (reference value: 18.7 %); type: functional
SUM149PT [8] = test: Induction of cell cycle arrest in human SUM149PT cells assessed as accumulation of cells at G2/M phase at 0.5 uM incubated for 24 hrs by propidium iodide/RNase A staining based flow cytometry (reference value: 5.54 %); type: functional
SUM149PT [9] = test: Induction of DNA double strand breaks in human SUM149PT cells assessed as increase in gamma-H2AX level incubated for 48 hrs by Western blotting analysis; type: functional, cell-based
SUM149PT [10] = test: Antiproliferative activity against human SUM149PT cells assessed as inhibition of cell growth at 20 uM incubated for 48 hrs by MTT assay relative to control; type: functional
SUM149PT [11] = test: Induction of apoptosis in human SUM149PT cells assessed as early apoptotic cells at 0.1 uM incubated for 48 hrs by Annexin V-FITC/PI staining based flow cytometry (reference value: 2.28 %); type: functional
SUM149PT [12] = test: Induction of apoptosis in human SUM149PT cells assessed as upregulation of cleaved caspase-3 expression incubated for 48 hrs by Western blotting analysis; type: functional, cell-based
SUM149PT [13] = test: Induction of apoptosis in human SUM149PT cells assessed as upregulation of cleaved PARP expression incubated for 48 hrs by Western blotting analysis; type: functional, cell-based
SUM149PT [14] = test: Induction of apoptosis in human SUM149PT cells assessed as early apoptotic cells at 0.5 uM incubated for 24 hrs by Annexin V-FITC/PI staining based flow cytometry (reference value: 2.59 %); type: functional
SUM149PT [15] = test: Induction of apoptosis in human SUM149PT cells assessed as viable cells at 0.5 uM incubated for 48 hrs by Annexin V-FITC/PI staining based flow cytometry (reference value: 96.1 %); type: functional; settings: read-out: Activity
SUM149PT [16] = test: Induction of ROS in human SUM149PT cells assessed as increase in fluorescence intensity incubated for 48 hrs by DCFH-DA staining based confocal laser scanning microscopic analysis; type: functional, cell-based
SUM149PT [17] = test: Induction of apoptosis in human SUM149PT cells assessed as necrotic cells at 0.5 uM incubated for 24 hrs by Annexin V-FITC/PI staining based flow cytometry (reference value: 1.27 %); type: functional
SUM149PT [18] = test: Induction of apoptosis in human SUM149PT cells assessed as necrotic cells at 2 uM incubated for 48 hrs by Annexin V-FITC/PI staining based flow cytometry (reference value: 0.51 %); type: functional
SUM149PT [19] = test: Induction of cell cycle arrest in human SUM149PT cells assessed as accumulation of cells at G0/G1 phase at 0.1 uM incubated for 48 hrs by propidium iodide/RNase A staining based flow cytometry (reference value: 69.2 %); type: functional
SUM149PT [20] = test: Induction of cell cycle arrest in human SUM149PT cells assessed as accumulation of cells at G0/G1 phase at 0.1 uM incubated for 24 hrs by propidium iodide/RNase A staining based flow cytometry (reference value: 72.8 %); type: functional
HCC1937 = test: Antiproliferative activity against human HCC1937 cells assessed as inhibition of cell growth incubated for 48 hrs by MTT assay; type: functional, cell-based; settings: HCC1937, 48 h
SUM149PT [21] = test: Induction of cell cycle arrest in human SUM149PT cells assessed as accumulation of cells at G0/G1 phase at 0.5 uM incubated for 48 hrs by propidium iodide/RNase A staining based flow cytometry (reference value: 69.2 %); type: functional
SUM149PT [22] = test: Induction of cell cycle arrest in human SUM149PT cells assessed as accumulation of cells at S phase at 0.5 uM incubated for 24 hrs by propidium iodide/RNase A staining based flow cytometry (reference value: 16.4 %); type: functional
SUM149PT [23] = test: Induction of apoptosis in human SUM149PT cells assessed as late apoptotic cells at 0.1 uM incubated for 48 hrs by Annexin V-FITC/PI staining based flow cytometry (reference value: 1.13 %); type: functional
SUM149PT [24] = test: Induction of apoptosis in human SUM149PT cells assessed as viable cells at 0.1 uM incubated for 24 hrs by Annexin V-FITC/PI staining based flow cytometry (reference value: 93.7 %); type: functional; settings: read-out: Activity
CAPAN-1 = test: Antiproliferative activity against human CAPAN-1 cells assessed as inhibition of cell growth at 5 uM incubated for 48 hrs by MTT assay relative to control; type: functional
SUM149PT [25] = test: Induction of apoptosis in human SUM149PT cells assessed as late apoptotic cells at 0.5 uM incubated for 24 hrs by Annexin V-FITC/PI staining based flow cytometry (reference value: 2.45 %); type: functional
SUM149PT [26] = test: Induction of apoptosis in human SUM149PT cells assessed as viable cells at 2 uM incubated for 48 hrs by Annexin V-FITC/PI staining based flow cytometry (reference value: 96.1 %); type: functional; settings: read-out: Activity
SUM149PT [27] = test: Induction of apoptosis in human SUM149PT cells assessed as viable cells at 0.1 uM incubated for 48 hrs by Annexin V-FITC/PI staining based flow cytometry (reference value: 96.1 %); type: functional; settings: read-out: Activity
[28] = target: Poly [ADP-ribose] polymerase 2 (Homo sapiens, UniProt Q9UGN5); test: Inhibition of PARP-2 in human SUM149PT cells incubated for 48 hrs by HRP-ELISA; type: cell-based
[29] = target: Poly [ADP-ribose] polymerase 1 (Homo sapiens, UniProt P09874); test: Inhibition of PARP-1 in human SUM149PT cells incubated for 48 hrs by HRP-ELISA; type: cell-based
SUM149PT [30] = test: Induction of cell cycle arrest in human SUM149PT cells assessed as accumulation of cells at G0/G1 phase at 2 uM incubated for 24 hrs by propidium iodide/RNase A staining based flow cytometry (reference value: 72.8 %); type: functional

Sequence of Poly [ADP-ribose] polymerase 2 (Q9UGN5 whole entry): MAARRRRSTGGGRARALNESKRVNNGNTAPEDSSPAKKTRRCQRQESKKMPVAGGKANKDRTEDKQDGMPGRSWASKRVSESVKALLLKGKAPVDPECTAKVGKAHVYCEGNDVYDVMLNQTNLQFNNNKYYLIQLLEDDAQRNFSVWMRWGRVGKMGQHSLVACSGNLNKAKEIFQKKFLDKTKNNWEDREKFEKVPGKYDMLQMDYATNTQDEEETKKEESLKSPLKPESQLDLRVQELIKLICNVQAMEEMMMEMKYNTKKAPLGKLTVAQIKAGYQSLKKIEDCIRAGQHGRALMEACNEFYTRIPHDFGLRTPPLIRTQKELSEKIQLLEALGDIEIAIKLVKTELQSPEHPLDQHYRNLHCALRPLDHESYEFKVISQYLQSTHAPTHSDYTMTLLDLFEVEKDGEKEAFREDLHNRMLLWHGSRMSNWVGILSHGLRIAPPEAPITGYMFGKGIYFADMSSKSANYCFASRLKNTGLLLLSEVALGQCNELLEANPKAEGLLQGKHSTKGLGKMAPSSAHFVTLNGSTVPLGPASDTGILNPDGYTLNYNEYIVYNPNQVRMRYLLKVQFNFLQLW
Sequence of Poly [ADP-ribose] polymerase 1 (P09874 whole entry): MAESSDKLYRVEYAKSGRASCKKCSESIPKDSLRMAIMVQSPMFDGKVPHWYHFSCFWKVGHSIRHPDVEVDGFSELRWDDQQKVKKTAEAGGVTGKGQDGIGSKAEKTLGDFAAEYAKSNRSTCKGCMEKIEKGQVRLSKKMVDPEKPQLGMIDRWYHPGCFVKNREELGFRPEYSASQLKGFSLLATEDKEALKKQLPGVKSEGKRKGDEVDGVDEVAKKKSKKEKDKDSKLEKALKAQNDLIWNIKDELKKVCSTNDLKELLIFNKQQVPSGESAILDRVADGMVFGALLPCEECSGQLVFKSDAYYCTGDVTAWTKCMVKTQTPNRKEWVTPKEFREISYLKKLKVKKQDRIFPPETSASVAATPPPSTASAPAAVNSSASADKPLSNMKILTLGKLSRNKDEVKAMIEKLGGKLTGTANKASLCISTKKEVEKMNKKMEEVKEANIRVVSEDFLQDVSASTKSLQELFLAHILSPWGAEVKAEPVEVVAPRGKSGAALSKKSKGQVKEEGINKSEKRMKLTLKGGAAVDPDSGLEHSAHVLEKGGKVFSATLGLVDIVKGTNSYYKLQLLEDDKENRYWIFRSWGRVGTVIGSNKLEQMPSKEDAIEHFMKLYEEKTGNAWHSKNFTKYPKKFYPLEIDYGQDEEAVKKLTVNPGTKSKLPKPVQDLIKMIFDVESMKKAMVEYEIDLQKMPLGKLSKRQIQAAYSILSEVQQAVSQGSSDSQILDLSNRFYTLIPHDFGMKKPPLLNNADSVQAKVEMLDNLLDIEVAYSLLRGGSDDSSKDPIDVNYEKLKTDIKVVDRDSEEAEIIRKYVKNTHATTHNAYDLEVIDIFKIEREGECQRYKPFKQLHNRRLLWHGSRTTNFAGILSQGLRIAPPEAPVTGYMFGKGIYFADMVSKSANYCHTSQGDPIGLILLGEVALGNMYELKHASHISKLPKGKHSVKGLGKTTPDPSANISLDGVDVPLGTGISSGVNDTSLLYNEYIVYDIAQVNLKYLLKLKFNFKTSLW

In the case of `COc1cccc(-c2cc3cc(F)cc(C(N)=O)c3oc2=O)c1`, the IC50 (SUM149PT [1]) is reported as 620 nM, the Activity (SUM149PT [2]) is reported as 18.5% and the Activity (SUM149PT [3]) is reported as “Dose-dependent-effect”. It also gave an Activity (SUM149PT [4]) of 13.5%, an inhibition at 20 µM (MDA-MB-436) of less than 40% and a viability at 0.5 µM (SUM149PT [5]) of 86.6%. The Activity (SUM149PT [6]) was 13.4%, the Activity (SUM149PT [7]) was 45.4% and the Activity (SUM149PT [8]) was 22.3%. For the same molecule, the Activity (SUM149PT [9]) was “Dose-dependent-effect”, the inhibition at 20 µM (SUM149PT [10]) was greater than 80% and the Activity (SUM149PT [11]) was 5.45%. For the same molecule, the Activity (SUM149PT [12]) was “Dose-dependent-effect”, the Activity (SUM149PT [13]) was “Dose-dependent-effect” and the Activity (SUM149PT [14]) was 5.61%. The viability at 0.5 µM (SUM149PT [15]) was 61.3%, the Activity (SUM149PT [16]) was “Dose-dependent-effect” and the Activity (SUM149PT [17]) was 2.31%. The Activity (SUM149PT [18]) was 2.61%, the Activity (SUM149PT [19]) was 25.9% and the Activity (SUM149PT [20]) was 59.5%. The IC50 (HCC1937) was 1910 nM, the Activity (SUM149PT [21]) was 38.3% and the Activity (SUM149PT [22]) was 17.4%. The Activity (SUM149PT [23]) was 6%, the viability at 0.1 µM (SUM149PT [24]) was 91.5% and the inhibition at 5 µM (CAPAN-1) was greater than 50%. The Activity (SUM149PT [25]) was 5.48%, the viability at 2 µM (SUM149PT [26]) was 61% and the viability at 0.1 µM (SUM149PT [27]) was 87.3%. For the same molecule, the IC50 [28] was 6.45 nM, the IC50 [29] was 2.53 nM and the Activity (SUM149PT [30]) was 39.9%.
